Assay results from US20240316146A1, “METHODS OF REDUCING NEUROPATHY AND NEUROPATHIC SYMPTOMS AND TREATING CANCER” (Bexion Pharmaceuticals Inc., priority 2021, published 2024).

System: A549 tumor spheroids with PBMCs
Assay: 3D-tumor spheroid T-cell killing model (Incucyte)
Format: cell-based, human
Conditions: BXQ-350 1.3 nM to 2.8 μM or Pembrolizumab 50 μg/ml; PBMCs with activation cocktail; day 6
Protocol: A549 human lung cancer cells, transfected with a lentivirus, were seeded in 96-wells ultra-low attachment plates at a concentration of 750 cells/well. The plates were then centrifuged at 1200 rpm for 2 min, to promote agglomeration of the cells and formation of spheroids. The plates then were incubated for three days at 37° C. After three days, freshly isolated human peripheral blood mononuclear cells (PBMCs) were added to the spheroids at a concentration of 10,000 PBMCs/well. To various wells were added one or more of: an activation cocktail containing an anti-CD3 antibody at a final concentration of 1 ng/ml and IL-12 at a final concentration of 10 ng/ml; BXQ-350 in serial dilutions from 25 μM to 1.27 nM; a positive control of Pembrolizumab at 50 μg/ml. A negative control group had no additions to the spheroids and PBMCs. The final volume of each well was then adjusted to 200 μL per well.
Plates were then left to incubate for an additional 30 minutes before being placed in the Incucyte® live cells analyzer; fluorescence was analyzed every 4 hours for 6 days. Images were then analyzed using the Incucyte® software to determine the IC50. Increased fluorescence intensity in A549 tumor cell spheroids correlates to an increased number of live Luc-A549 cells in the spheroids, and a lack of fluorescence denotes cell death.

## Pembrolizumab: positive control at 50 μg/ml in the spheroid model
  cell death of spheroids (in words): increased cell death by day 6
